Test: Relative sweetness of hydrophobic sweetener compounds (factor used for the Sucrose Equivalent calculation)
Settings: Sucrose Equivalent = weight percent in the chewing gum multiplied by relative sweetness
Description: It should be appreciated that due to the slow release of hydrophobic sweeteners from the chewing gum, it is believed that higher levels of the hydrophobic sweeteners as compared to typical water soluble sweeteners may be necessary to provide the desired level of sweetness or sweetness intensity. The amount can suitably vary depending on any number of factors, such as the desired level of sweetness and the relative sweetness intensity specific to the hydrophobic sweetener compound. As detailed below, the relative sweetness can vary depending on the type of hydrophobic sweetener compound. In an embodiment, chewing gum includes the hydrophobic sweetener compound in an amount ranging from about 50 to about 5000 Sucrose Equivalents. The Sucrose Equivalent factor is determined by multiplying the weight percent of the hydrophobic compound in the chewing gum by its relative sweetness. By way of example and not limitation, the following tables illustrate a variety of hydrophobic sweetener compounds representative of the hydrophobic sweetener compounds of Formulas I–XI, as previously discussed. The tables also indicate the relative sweetness of the hydrophobic sweetener compounds. As previously discussed, this factor can be utilized to calculate the Sucrose Equivalent calculation which relates to the amount of hydrophobic sweetener in the chewing gum.

SMILES	Relative Sweetness
COc1ccc(C2CSc3ccccc3O2)cc1O (stereo not shown) [Compound 7]	250
COc1ccc(C2Sc3ccccc3S2)cc1O [Compound 13]	200
COc1ccc(C2CSc3ccccc3S2)cc1O (stereo not shown) [Compound 12]	450
O=C(O)c1ccccc1C(=O)c1ccc(O)cc1 [Compound 30]	200
COc1ccc(C(=O)/C=C/C(=O)O)cc1 [Compound 33]	50
COc1ccc(C2COc3ccccc3C2)cc1O (stereo not shown) [Compound 1]	200
COc1ccc(OC(=O)c2ccccc2C(=O)O)cc1 [Compound 34]	10
COc1ccc(C2OCc3ccccc3S2)cc1O (stereo not shown) [Compound 8]	9000
COc1ccc(C2OCc3ccccc3O2)cc1O (stereo not shown) [Compound 5]	3000
COc1ccc(C2Cc3ccccc3CO2)cc1O (stereo not shown) [Compound 2]	350
COc1ccc(C2SCc3ccccc3S2)cc1O (stereo not shown) [Compound 11]	1000
Oc1ccc(C2OCc3ccccc3S2)cc1O (stereo not shown) [Compound 17]	200
COc1ccc(C2CSc3cc(O)ccc3O2)cc1O (stereo not shown) [Compound 20]	500
COc1ccc(C2Oc3ccccc3S2)cc1O (stereo not shown) [Compound 14]	300
O=C(O)c1ccccc1C(=O)c1ccc(O)c(O)c1 [Compound 22]	100
COc1ccc(CCC(=O)c2cccc(C(=O)O)c2)cc1O [Compound 25]	80

SMILES	Relative Sweetness
COc1ccc(C2COc3ccccc3O2)cc1O (stereo not shown) [Compound 4]	450
COc1ccc([S+]([O-])c2ccccc2C(=O)O)cc1 (stereo not shown) [Compound 23]	50
COc1ccc(OCc2ccccc2C(=O)O)cc1O [Compound 26]	10
COc1ccc(C(=O)c2ccccc2C(=O)[O-])cc1.[Na+] [Compound 36]	150
COc1ccc(C2Oc3ccccc3O2)cc1O [Compound 15]	150
COc1ccc(C2COc3ccccc3S2)cc1O (stereo not shown) [Compound 9]	2000
COc1ccc(C2OCc3ccccc3S2)cc1S (stereo not shown) [Compound 16]	50
COc1ccc(CCc2ccccc2)cc1O [Compound 27]	300
COc1ccc(C2CCc3ccccc3S2)cc1O (stereo not shown) [Compound 10]	200
COc1ccc(C2CS(=O)(=O)c3ccccc3O2)cc1O (stereo not shown) [Compound 19]	50
COc1ccc(CCC(=O)c2c(O)cc(O)cc2O)cc1O [Compound 24]	665
Oc1cccc(C2OCc3ccccc3S2)c1 (stereo not shown) [Compound 18]	100
COc1ccc(C(=O)c2ccccc2C(=O)O)cc1O [Compound 21]	250
COc1ccc(C2CCc3ccccc3O2)cc1O (stereo not shown) [Compound 3]	350
COc1ccc(C2Oc3ccccc3CS2)cc1O (stereo not shown) [Compound 6]	500

Reference: US7025999B2, “Chewing gum having prolonged sensory benefits” (Wm. Wrigley Jr. Company, priority 2001, dated 2006)
